According to PMC10819888, “Benzimidazole-Based Derivatives as Apoptotic Antiproliferative Agents: Design, Synthesis, Docking, and Mechanistic Studies” (Molecules, 2024):

Key:
Type in all cases: cell-based, human
Conditions in all cases: PC-3 cell line
caspase-8 = assay: Caspase-8 activation assay
Protocol: (§1) For more details, see Supplementary Materials. […]
(§2) the positive wells exceeds the limits of the instrument. The O.D. values at 450 nm can only be read after the Stop Solution has been added to each well. If using a reader that […]
(§3) 100 μl of Stop Solution to each well. Tap side of plate gently to mix. The solution in the wells should change from blue to yellow. Read the absorbance of each well at 450 nm having blanked the plate reader against a chromogen blank composed of 100 μl each of Stabilized Chromogen and Stop Solution. Read the plate within 2 hours after adding the Stop Solution. Use a curve fitting software to generate the standard curve. A four- […]
Read the concentrations for unknown samples and controls from the standard curve. Multiply value(s) obtained for sample(s) by the appropriate dilution factor to correct for the dilution in step 3. Samples […]
Diluent Buffer and reanalyzed.
4.2.4. Caspase-8 activation assay
Cells were obtained from American Type Culture Collection, cells were grown in RPMI […]
tested for caspase8, and lysed with Cell Extraction Buffer. This lysate was diluted in […]
caspase-8 content. (Cells are Plated in a density of 1.2 – 1.8 × 10,000 cells/well in a volume of 100µl complete growth medium + 100 ul of the tested compound per well in a 96-well plate for 24 hours before the enzyme assay for Tubulin.). The absorbance of each microwell was read on a spectro-photometer at 450 nm. A standard curve is prepared from 7human Caspase-8 standard dilutions and human Caspase-8 concentration determined.

caspase-3 = assay: Caspase-3 activation assay
Source text: Caspase-3 is a key caspase that cleaves numerous cell proteins, resulting in apoptosis. […] They elevated the protein caspase-3 in the PC-3 cancer cell line by around seven to nine times compared to untreated control cells.
as §1
4.2.3. Caspase-3 activation assay
Allow all reagents to reach room temperature before use. Gently mix all liquid reagents prior to use. Determine the number of 8-well strips needed for the assay. Insert these in the frame(s) for current use. Add 100 μl of the Standard Diluent Buffer to the zero standard wells. Well(s) reserved for chromogen blank should be left empty. Add 100 μl of standards and controls or diluted samples to the appropriate microtiter wells. The sample dilution chosen should be optimized for each experimental system. Tap gently on side of plate to mix. Cover wells with plate cover and incubate for 2 hours at room temperature. Thoroughly aspirate or decant solution from wells and discard the liquid, Wash wells 4 times. Pipette 100 μl of Caspase-3 (Active) Detection Antibod y solution into each well except the chromogen blank(s). Tap gently on the side of the plate to mix.
Cover plate with plate cover and incubate for 1 hour at room temperature. Thoroughly aspirate or decant solution from wells and discard the liquid, Wash well s 4 times. Add 100 μl Anti-Rabbit IgG HRP Working Solution to each well except the chromogen blank(s). Prepare the working dilution as described in Preparing IgG HRP. Cover wells with the plate cover and incubate for 30 minutes at room temperature. Thoroughly aspirate or decant solution from wells and discard the liquid. Wash wells 4 times. Add 100 μl of Stabilized Chromogen to each well. The liquid in the wells will begin to turn blue. Incubate for 30 minutes at room temperature and in the dark. The incuba tion time for chromogen substrate is often determined by the microtiter plate reader used. Many plate readers have the capacity to record a maximum optical density (O.D.) of 2.0. The O.D. values should be monitored, and the substrate reaction stopped befor e the O.D. of […]
as §2
as §3, with “four-parameter algorithm provides the best standard curve fit. Read the concentrations for unknown samples and controls from the standard curve. Multiply value(s) obtained for sample(s) by the appropriate dilution factor to correct for the dilution in step 3. Samples producing signals greater than that of the highest standard should be diluted in Standard Diluent Buffer and reanalyzed.” for “four-”
A standard curve is […]
prepared from 7human Caspase-8 standard dilutions and human Caspase-8 concentration determined.

Bax = Bax activation assay
Protocol: For more details, see Supplementary Materials.
4.2.5. Bax activation assay
Bring all reagents, except the human Bax-α Standard, to room temperature for at least 30 minutes prior to opening. The human Bax -α Standard solution should not be left at room temperature for more than 10 minutes. All standards, controls and samples should be run in duplicate. Refer to the Assay Layout Sheet to determine the number of wells to be used and put any remaining wells with the desiccant back into the pouch and seal the ziploc. Store unused wells at 4 °C. Pipet 100 μL of Assay Buffer into the S0 ( 0 pg/mL standard) wells. Pipet 100 μL of Standards #1 through #6 into the appropriate wells. Pipet 100 μL of the Samples into the appropriate wells. Tap the plate gently to mix the contents. Seal the plate and incubate at room temperature on a plate shaker for 1 hour at ~500 rpm. Empty the contents of the wells and wash by adding 400 μL of wash solution to every well. Repeat the wash 4 more times for a total of 5 washes. After the final wash, empty or aspirate the wells and firmly tap the plate on a lint fr ee paper towel to remove any remaining wash buffer. Pipet 100 μL of yellow Antibody into each well, except the Blank. Seal the plate and incubate at room temperature on a plate shaker for 1 hour at ~500 rpm. Empty the contents of the wells and wash by addi ng 400 μL of […]
the final wash, empty or aspirate the wells and firmly tap the plate on a lint free paper towel to remove any remaining wash buffer. Add 100 μL of blue Co njugate to each well, except the Blank. Seal the plate and incubate at room temperature on a plate shaker for 30 minutes at ~500 rpm. Empty the contents of the wells and wash by adding 400 μL of wash solution to every well. Repeat the wash 4 more times for a total of 5 washes .
After the final wash, empty or aspirate the wells and firmly tap the plate on a lint free paper towel to remove any remaining wash buffer. Pipet 100 μL of Substrate Solution into each well. Incubate for 30 minutes at room temperature on a plate shaker at ~500 rpm. Pipet 100 μL Stop Solution to each well. Blank the plate reader against the Blank wells, read the optical density at 450 nm. Calculate the average net Optical Density (OD) bound for each standard and sample by subtracting the average Blank OD from the average OD for each standard and sample. Using linear graph paper, plot the Average Net OD for each standard versus Bax concentration in each standard.
Approximate a straight line through the points. The concentration of Bax in the unknowns can be determined by interpolation. […]

SMILES | Caspase-8 Conc (caspase-8) [ng/mL] | caspase-8 increase compared to untreated control cell (caspase-8) [times] | caspase-8 level (caspase-8) [ng/mL] | Caspase-3 Conc (caspase-3) [pg/mL] | caspase-3 protein level (caspase-3) [pg/mL] | Bax Conc (Bax) [pg/mL] | Bax increase compared to untreated PC-3 cancer cells (Bax) [fold] | Bax level (Bax) [pg/mL] | Caspase-8 Fold Change (caspase-8; vs control) | Caspase-3 Fold Change (caspase-3; vs control) | Bax Fold Change (Bax; vs control)
O=C(NN=Cc1ccc([N+](=O)[O-])cc1)c1ccc2[nH]c(-c3ccc(Cl)cc3)nc2c1 [Compound 4c, N′-(4-Nitrobenzylidene)-2-(4-chlorophenyl)-1H-benzimidazole-5-carbohydrazide] | 1.90 | 16 | 1.90 | 365 ± 12 | 365 ± 12 | 185 | 26 | 185 | – | – | –
O=C(NN=Cc1ccc(Cl)cc1)c1ccc2[nH]c(-c3ccc(Cl)cc3)nc2c1 [Compound 4e, N′-(4-Chlorobenzylidene)-2-(4-chlorophenyl)-1H-benzimidazole-5-carbohydrazide] | 2.20 | 18 | 2.20 | 470 ± 15 | 470 ± 15 | 220 | 31 | 220 | 18 | 9 | 31
